Laboratory results from ChEMBL document CHEMBL1629706 (Antimicrob Agents Chemother, 2010).
Blank lines part the entries; values can stand above or below the compound they belong to.

Columns and labels:
[1] = tested on: Plasmodium falciparum; assay: Antimalarial activity against Plasmodium falciparum; type: functional, organism-based
[2] = tested on: Plasmodium falciparum; assay: microbe, parasite or virus in culture; details: isolate AK222
Description: Antimalarial activity against Plasmodium falciparum isolate AK222

[3] = tested on: Plasmodium falciparum; assay: microbe, parasite or virus in culture; details: isolate AK249
Description: Antimalarial activity against Plasmodium falciparum isolate AK249

[4] = tested on: Plasmodium falciparum; assay: microbe, parasite or virus in culture; details: isolate AK022D-0
Description: Antimalarial activity against Plasmodium falciparum isolate AK022D-0

[5] = tested on: Plasmodium falciparum; assay: microbe, parasite or virus in culture; details: isolate AK167
Description: Antimalarial activity against Plasmodium falciparum isolate AK167

[6] = tested on: Plasmodium falciparum; assay: microbe, parasite or virus in culture
Description: Antimalarial activity against Plasmodium falciparum harboring pfmdr1 gene

[7] = tested on: Plasmodium falciparum; assay: Antimalarial activity against Plasmodium falciparum harboring pfcrt-76 mutant gene with 2 DNNND repeat; type: functional, organism-based
[8] = tested on: Plasmodium falciparum; assay: microbe, parasite or virus in culture; details: isolate AK033 D-0
Description: Antimalarial activity against Plasmodium falciparum isolate AK033 D-0

[9] = tested on: Plasmodium falciparum; assay: microbe, parasite or virus in culture; details: isolate AK152 D-56
Description: Antimalarial activity against Plasmodium falciparum isolate AK152 D-56

[10] = tested on: Plasmodium falciparum; assay: microbe, parasite or virus in culture; details: isolate 8968
Description: Antimalarial activity against Plasmodium falciparum isolate 8968

[11] = tested on: Plasmodium falciparum; assay: Antimalarial activity against Plasmodium falciparum harboring pfmdr1-86 mutant gene with 2 DNNND repeat; type: functional, organism-based
[12] = tested on: Plasmodium falciparum; assay: Antimalarial activity against Plasmodium falciparum harboring 3 DNNND repeat; type: functional, organism-based
[13] = tested on: Plasmodium falciparum; assay: microbe, parasite or virus in culture; details: isolate 8885
Description: Antimalarial activity against Plasmodium falciparum isolate 8885

[14] = tested on: Plasmodium falciparum; assay: Antimalarial activity against Plasmodium falciparum harboring 1 DNNND repeat; type: functional, organism-based
[15] = tested on: Plasmodium falciparum; assay: Antimalarial activity against Plasmodium falciparum harboring pfcrt-76 mutant gene; type: functional, organism-based
[16] = tested on: Plasmodium falciparum; assay: microbe, parasite or virus in culture; details: isolate AK062
Description: Antimalarial activity against Plasmodium falciparum isolate AK062

[17] = tested on: Plasmodium falciparum; assay: microbe, parasite or virus in culture; details: isolate AK033 D-49
Description: Antimalarial activity against Plasmodium falciparum isolate AK033 D-49

[18] = tested on: Plasmodium falciparum; assay: microbe, parasite or virus in culture; remark: listed apart in the source
Description: Antimalarial activity against Plasmodium falciparum harboring pfmdr1 gene with 2 DNNND repeat

[19] = tested on: Plasmodium falciparum; assay: microbe, parasite or virus in culture; details: isolate 9070
Description: Antimalarial activity against Plasmodium falciparum isolate 9070

[20] = tested on: Plasmodium falciparum; assay: microbe, parasite or virus in culture; details: isolate AK158
Description: Antimalarial activity against Plasmodium falciparum isolate AK158

[21] = tested on: Plasmodium falciparum; assay: microbe, parasite or virus in culture; details: isolate AK022 D-28
Description: Antimalarial activity against Plasmodium falciparum isolate AK022 D-28

[22] = tested on: Plasmodium falciparum; assay: microbe, parasite or virus in culture; remark: listed apart in the source
Description: Antimalarial activity against Plasmodium falciparum harboring 2 DNNND repeat

[23] = tested on: Plasmodium falciparum; assay: microbe, parasite or virus in culture; details: isolate 8966
Description: Antimalarial activity against Plasmodium falciparum isolate 8966

[24] = tested on: Plasmodium falciparum; assay: microbe, parasite or virus in culture; details: 3D7
Description: Antimalarial activity against Plasmodium falciparum 3D7

[25] = tested on: Plasmodium falciparum; assay: microbe, parasite or virus in culture; details: isolate CDA-1553
Description: Antimalarial activity against Plasmodium falciparum isolate CDA-1553

[26] = tested on: Plasmodium falciparum; assay: microbe, parasite or virus in culture; details: isolate AK183
Description: Antimalarial activity against Plasmodium falciparum isolate AK183

[27] = tested on: Plasmodium falciparum; assay: microbe, parasite or virus in culture; details: isolate 9067
Description: Antimalarial activity against Plasmodium falciparum isolate 9067

[28] = tested on: Plasmodium falciparum; assay: microbe, parasite or virus in culture; details: isolate 8973
Description: Antimalarial activity against Plasmodium falciparum isolate 8973

[29] = tested on: Plasmodium falciparum; assay: microbe, parasite or virus in culture; details: isolate AK150 D-42
Description: Antimalarial activity against Plasmodium falciparum isolate AK150 D-42

[30] = tested on: Plasmodium falciparum; assay: Antimalarial activity against Plasmodium falciparum harboring pfmdr1-86 mutant gene; type: functional, organism-based

- IC50 [1]: 1 nM
SMILES: C[C@H]1[C@@H](O)O[C@@H]2O[C@@]3(C)CC[C@H]4[C@H](C)CC[C@@H]1[C@@]24OO3 [ARTENIMOL]

SMILES: CCCCN(CCCC)CC(O)c1cc(Cl)cc2c1-c1ccc(Cl)cc1/C2=C/c1ccc(Cl)cc1 (stereo not drawn) [LUMEFANTRINE]
- IC50 [1]: 56 nM

SMILES: Clc1ccc2c(N3CCN(CCCN4CCN(c5ccnc6cc(Cl)ccc56)CC4)CC3)ccnc2c1 [PIPERAQUINE]
- IC50 [1]: 56 nM

SMILES: C=C[C@H]1CN2CC[C@H]1C[C@H]2[C@H](O)c1ccnc2ccc(OC)cc12 [QUININE]
- IC50 [2]: 210 nM
- IC50 [3]: 270 nM
- IC50 [4]: 42.4 nM
- IC50 [5]: 227 nM
- IC50 [6]: 74 nM
- IC50 [7]: 234 nM
- IC50 [8]: 32.8 nM
- IC50 [9]: 208 nM
- IC50 [10]: 30.6 nM
- IC50 [11]: 249 nM
- IC50 [12]: 45 nM
- IC90 [12]: 125 nM
- IC50 [13]: 78.2 nM
- IC90 [14]: 157 nM
- IC50 [15]: 164 nM
- IC50 [16]: 182 nM
- IC50 [17]: 54.1 nM
- IC50 [18]: 92 nM
- IC50 [19]: 41.5 nM
- IC50 [20]: 234 nM
- IC50 [21]: 22 nM
- IC50 [22]: 227 nM
- IC50 [23]: 55.8 nM
- IC50 [24]: 27.1 nM
- IC50 [25]: 333 nM
- IC50 [26]: 73.9 nM
- IC50 [27]: 80.1 nM
- IC50 [28]: 20 nM
- IC50 [29]: 91.6 nM
- IC50 [30]: 208 nM
